Where two headings read alike, the source gives them in different places.
How the values were obtained:
[1] = system: retinoic acid (RA) metabolism; test: Inhibition of retinoic acid (RA) metabolism in MCF-7 human breast cancer cells; type: cell-based; details: MCF7, 3H-RA substrate, Table 1
Protocol: MCF-7 human breast cancer cells were grown as stock cultures according to art-known protocols. One day before the experiment, RA is added to the stock cultures to stimulate RA-metabolism. At the start of the experiment, cell suspensions were incubated in a tissue culture medium containing ^3 H-RA as the substrate. Different concentrations of the test compound (dissolved in 1% DMSO) were added to the incubation mixtures, and at the end of the incubation, the unmetabolized RA is separated from its polar metabolites. The fraction containing the polar ^3 H-labelled metabolites was collected and counted in a scintillation counter. For each experiment, a control and a blank incubation were run in parallel. The IC50 values listed in table 1 are the concentrations needed to reduce the amount of metabolites to 50% of the control.

[2] = system: estradiol undecylate induced keratinization effects; test: Vaginal Keratinization Test on Ovariectomized Rats; type: in vivo; details: Rattus norvegicus, po, lowest active dose
Protocol: Ovariectomized rats were injected subcutaneously with a sesame oil solution containing 100 μg of estradiol undecylate in a volume of 0.1 ml per 100 g body weight and control animals were injected with sesame oil. On day one, two and three, test animals were treated once daily with a per os dose of the test compound and control animals with the drug vehicle (PEG 200). One day after the last treatment, the animals were sacrificed and their vaginas were processed for histological evaluation according to the method described in J. Pharmacol. Exp. Ther. 261(2), 773-779 (1992). A dose at which 50% of the tested rats show complete suppression of the estradiol undecylate induced keratinization effects is defined as an active dose.
In said table, the keratinization effect of the present compound number 3 is compared to the structurally closest art-known compounds, the latter being disclosed in EP-0,371,564.

[3] = 72 h, 50% of ovariectomized rats show complete suppression, per os once daily, 3 days, Table 1, read-out: Keratinization (LAD in mg/kg)
[4] = keratinization effect, per os, ovariectomized rats, comparison with EP-0,371,564 compounds, Table 2, read-out: LAD

IC50 [1] [nM]	Compound	minimal effective dose [2, 3] [mg/kg]	minimal effective dose [2, 4] [mg/kg]
8590	Cn1c(=O)ccc2cc(C(c3cccc(C(F)(F)F)c3)n3cncn3)ccc21 (racemic) [Compound 12, (±)-1methyl-6-[1H-1,2,4-triazol-1-yl[3-(trifluoromethyl)phenyl]methyl]-2(1H)-quinolinone]	2.5	
1470	Nn1c(=O)ccc2cc(C(c3cccc(C(F)(F)F)c3)n3cncn3)ccc21 (racemic) [Compound 20, (±)-(1-amino-6-[1H-1,2,4-triazol-1-yl-[3-(trifluoromethyl)phenyl]methyl]-2(1H)-quinolinone]	5	
4370	Cn1c(=S)ccc2cc(C(c3cccc(C(F)(F)F)c3)n3cncn3)ccc21 (racemic) [Compound 21, (±)-1-methyl-6-[1H-1,2,4-triazol-1-yl[3-(trifluoromethyl]phenyl]methyl]-2(1H)-quinolinethione]	5	
510	CC(c1cccc(C(F)(F)F)c1)(c1ccc2[nH]c(=O)ccc2c1)n1cncn1 (centres unmarked) [Compound 4]	5	
> 10000	O=c1ccc2cc(C(F)(c3cccc(C(F)(F)F)c3)n3cncn3)ccc2[nH]1 (centres unmarked) [Compound 5]	5	
18.2	CCC(c1cccc(C(F)(F)F)c1)(c1ccc2[nH]c(=O)ccc2c1)n1cncn1 (centres unmarked) [Compound 6]	10	
270	CC(C)C(c1cccc(C(F)(F)F)c1)(c1ccc2[nH]c(=O)ccc2c1)n1cncn1 (centres unmarked) [Compound 7]	> 20	
154	O=c1ccc2cc(C(c3cccc(C(F)(F)F)c3)n3cncn3)cc(F)c2[nH]1 (centres unmarked) [Compound 11]	10	
3.25	Cn1c(=O)ccc2cc(C(C)(c3cccc(C(F)(F)F)c3)n3cncn3)ccc21 (centres unmarked) [Compound 14]	5	

Further lines, the compound ahead of its results:

Compound	IC50 [1] [nM]	minimal effective dose [2, 3] [mg/kg]	minimal effective dose [2, 4] [mg/kg]
O=c1ccc2cc(C(c3cccc(C(F)(F)F)c3)n3cncn3)ccc2[nH]1 (racemic) [Compound 3, (±)-6-[1H-1,2,4-triazol-1-yl[3-(trifluoromethyl)phenyl]methyl]-2(1H)-quinolinone]	851	2.5	2.5
O=c1ccc2cc([C@H](c3cccc(C(F)(F)F)c3)n3cncn3)ccc2[nH]1 [Compound 1, (-)-(R)-6-[1H-1,2,4-triazol-1-yl[3-(trifluoromethyl)phenyl]methyl]-2(1H)-quinolinone]	850	1.25	
O=c1ccc2cc([C@@H](c3cccc(C(F)(F)F)c3)n3cncn3)ccc2[nH]1 [Compound 2]	3850	> 40	
Cc1cc(C(c2cccc(C(F)(F)F)c2)n2cncn2)cc2ccc(=O)[nH]c12 (centres unmarked) [Compound 9]	706	10	
O=c1ccc2c(Cl)c(C(c3cccc(C(F)(F)F)c3)n3cncn3)ccc2[nH]1 (centres unmarked) [Compound 10]	764	10	
O=c1ccc2cc(C(c3cccc(F)c3)n3ccnc3)ccc2[nH]1 (centres unmarked) [Compound 11-a, reference compound]			40
Cn1c(=O)ccc2cc(C(F)(c3cccc(C(F)(F)F)c3)n3cncn3)ccc21 (centres unmarked) [Compound 13]	10.2		
FC(F)(F)c1cccc(C(c2ccc3ncccc3c2)n2cncn2)c1 (centres unmarked) [Compound 66-a, reference compound]			10

Reference: patent US5922734A, “6-[triazolyl[3-(trifluoromethyl)phenyl]methyl]-2-quinolines and -quinolinethiones” (Janssen Pharmaceutica, N.V., priority 1994, dated 1999)
